Test: xn = mol fraction of the nth substance listed
Conditions: Liquid; for viscosity: Vibrating wire viscometry; for mass density: vibrating-wire apparatus

CC(C)CCCC(C)CCCC(C)CCCCC(C)CCCC(C)CCCC(C)C (stereo unspecified) [2,6,10,15,19,23-hexamethyltetracosane] + O=C=O
Conditions	mass density [kg/m3]	viscosity [mPa·s]
398.13 K, 10940 kPa, x2 = 0.6039	749.2	1.01
398.13 K, 11100 kPa, x2 = 0.6039	748.9	1
398.13 K, 30870 kPa, x2 = 0.6039	771.8	1.3
398.13 K, 50550 kPa, x2 = 0.6039	789.2	1.61
398.13 K, 70810 kPa, x2 = 0.6039	804.2	1.95
398.13 K, 91230 kPa, x2 = 0.6039	817.2	2.31
398.13 K, 110700 kPa, x2 = 0.6039	828.2	2.69
398.13 K, 131240 kPa, x2 = 0.6039	838.7	3.12
398.13 K, 150740 kPa, x2 = 0.6039	847.7	3.57
398.13 K, 170660 kPa, x2 = 0.6039	856.2	4.08
398.31 K, 10790 kPa, x2 = 0.4233	749	1.38
398.31 K, 10830 kPa, x2 = 0.4233	755.3	1.39
398.31 K, 30180 kPa, x2 = 0.4233	768.1	1.79
398.31 K, 50350 kPa, x2 = 0.4233	784	2.24
398.31 K, 70500 kPa, x2 = 0.4233	797.4	2.74
398.31 K, 90450 kPa, x2 = 0.4233	808.9	3.3
398.31 K, 110290 kPa, x2 = 0.4233	819.1	3.92
398.31 K, 130350 kPa, x2 = 0.4233	828.4	4.62
398.31 K, 150520 kPa, x2 = 0.4233	837.2	5.4
398.31 K, 170000 kPa, x2 = 0.4233	845	6.24
398.33 K, 30150 kPa, x2 = 0.7882	760.4	0.62
398.33 K, 30500 kPa, x2 = 0.7882	759.9	0.62
398.33 K, 50500 kPa, x2 = 0.7882	786.7	0.78
398.33 K, 70580 kPa, x2 = 0.7882	807.3	0.94
398.33 K, 90510 kPa, x2 = 0.7882	824.2	1.1
398.33 K, 110760 kPa, x2 = 0.7882	839	1.28
398.33 K, 130550 kPa, x2 = 0.7882	851.6	1.46
398.33 K, 150620 kPa, x2 = 0.7882	863.2	1.65
398.33 K, 170310 kPa, x2 = 0.7882	873.6	1.84
448.13 K, 10630 kPa, x2 = 0.6039	713.1	0.69
448.13 K, 11010 kPa, x2 = 0.6039	713.3	0.68
448.13 K, 30730 kPa, x2 = 0.6039	739.7	0.89
448.13 K, 50590 kPa, x2 = 0.6039	759.8	1.09
448.13 K, 70380 kPa, x2 = 0.6039	776.6	1.22
448.13 K, 91380 kPa, x2 = 0.6039	791.8	1.43
448.13 K, 111050 kPa, x2 = 0.6039	804.5	1.63
448.13 K, 130810 kPa, x2 = 0.6039	815.7	1.84
448.13 K, 150960 kPa, x2 = 0.6039	826	2.08
448.13 K, 171000 kPa, x2 = 0.6039	835.3	2.35
448.35 K, 11450 kPa, x2 = 0.4233	715.2	0.8
448.35 K, 11570 kPa, x2 = 0.4233	720.6	0.81
448.35 K, 30330 kPa, x2 = 0.4233	737.6	1.04
448.35 K, 50410 kPa, x2 = 0.4233	756.5	1.3
448.35 K, 70450 kPa, x2 = 0.4233	771.8	1.57
448.35 K, 90670 kPa, x2 = 0.4233	785.2	1.86
448.35 K, 110310 kPa, x2 = 0.4233	796.6	2.17
448.35 K, 130440 kPa, x2 = 0.4233	807	2.52
448.35 K, 150510 kPa, x2 = 0.4233	816.5	2.88
448.35 K, 169900 kPa, x2 = 0.4233	824.8	3.28
448.41 K, 30160 kPa, x2 = 0.7882	714.5	0.41
448.41 K, 30820 kPa, x2 = 0.7882	714.9	0.41
448.41 K, 50450 kPa, x2 = 0.7882	748	0.52
448.41 K, 70350 kPa, x2 = 0.7882	772.5	0.63
448.41 K, 90420 kPa, x2 = 0.7882	792.3	0.74
448.41 K, 110590 kPa, x2 = 0.7882	809.1	0.85
448.41 K, 130360 kPa, x2 = 0.7882	823.3	0.97
448.41 K, 150480 kPa, x2 = 0.7882	836.2	1.1
448.41 K, 169720 kPa, x2 = 0.7882	847.5	1.22

Reference: the NIST ThermoML archive (doi:10.1021/je800894y)
